pIC50: −log10 of the molar value. “Also recorded” adds a separate entry of the source. Read-outs that look alike come from different tables or passages of the source.
What was measured:
Rad6 = biological target: T1, Rad6 (Homo sapiens, UniProt P63146); experiment: Rad6~ubiquitin thioester formation by transfer from already formed Uba1~ubiquitin; assay type: biochemical; settings: Rad6 preincubated with compound 15 min; 2% DMSO
T1 construct: FLAG; made in house
Description: The overall reaction was conducted in two separate steps: initial reaction of Uba1 with ubiquitin in the absence of compound, then mixing with Rad6 with compound to evaluate transfer of ubiquitin from already formed Uba1~ubiquitin to Rad6. The first reaction was conducted with 300 nM Uba1, 1 μM GST-ubiquitin, and 2 mM ATP in a buffer of 40 mM Tris-HCl, pH 7.5, 8 mM MgCl2, and 10% glycerol for 30 min at 25 °C to allow for charging of Uba1 with GST-ubiquitin incubations. […] The samples were then subjected to SDS-polyacrylamide gel electrophoresis under non-reducing conditions, silver staining, and quantitation of scanned images, as described above for the silver-staining-based Uba1~ubiquitin thioester formation assay.

HEK 293FT cells [1] = experiment: Cellular global ubiquitination with MG132, anti-ubiquitin Western blot; assay type: cell-based, human; settings: EGCG 250 and 500 μM, 1 h total; MG132 50 μM for 30 min
Description: HEK 293FT cells were plated in 6-well plates at 8 × 10^5 cells/well in DMEM with 0.5% FBS. […] Cells were harvested, and whole-cell lysates were prepared in RIPA lysis buffer containing protease inhibitor cocktail ([…] from Sigma-Aldrich) and sonicated. Equivalent loadings of total protein for each treatment, as determined by Bradford assay of each extract sample, were subjected to electrophoresis on 8% SDS-polyacrylamide gels and Western blot analysis, probed with anti-ubiquitin antibody, then stripped and reprobed with anti-β-tubulin antibody.

Uba1 [2] = biological target: T2, Uba1 (Homo sapiens, UniProt P22314); experiment: Reversibility: Uba1 preincubation, washout by centrifugal filtration, then PCNA ubiquitination; assay type: biochemical; settings: 30 μM compound preincubated with Uba1 for 2 h, then washed out
T2 construct: His; host or cells: E. coli BL21(DE3)
T2 sequence (P22314 1-1058): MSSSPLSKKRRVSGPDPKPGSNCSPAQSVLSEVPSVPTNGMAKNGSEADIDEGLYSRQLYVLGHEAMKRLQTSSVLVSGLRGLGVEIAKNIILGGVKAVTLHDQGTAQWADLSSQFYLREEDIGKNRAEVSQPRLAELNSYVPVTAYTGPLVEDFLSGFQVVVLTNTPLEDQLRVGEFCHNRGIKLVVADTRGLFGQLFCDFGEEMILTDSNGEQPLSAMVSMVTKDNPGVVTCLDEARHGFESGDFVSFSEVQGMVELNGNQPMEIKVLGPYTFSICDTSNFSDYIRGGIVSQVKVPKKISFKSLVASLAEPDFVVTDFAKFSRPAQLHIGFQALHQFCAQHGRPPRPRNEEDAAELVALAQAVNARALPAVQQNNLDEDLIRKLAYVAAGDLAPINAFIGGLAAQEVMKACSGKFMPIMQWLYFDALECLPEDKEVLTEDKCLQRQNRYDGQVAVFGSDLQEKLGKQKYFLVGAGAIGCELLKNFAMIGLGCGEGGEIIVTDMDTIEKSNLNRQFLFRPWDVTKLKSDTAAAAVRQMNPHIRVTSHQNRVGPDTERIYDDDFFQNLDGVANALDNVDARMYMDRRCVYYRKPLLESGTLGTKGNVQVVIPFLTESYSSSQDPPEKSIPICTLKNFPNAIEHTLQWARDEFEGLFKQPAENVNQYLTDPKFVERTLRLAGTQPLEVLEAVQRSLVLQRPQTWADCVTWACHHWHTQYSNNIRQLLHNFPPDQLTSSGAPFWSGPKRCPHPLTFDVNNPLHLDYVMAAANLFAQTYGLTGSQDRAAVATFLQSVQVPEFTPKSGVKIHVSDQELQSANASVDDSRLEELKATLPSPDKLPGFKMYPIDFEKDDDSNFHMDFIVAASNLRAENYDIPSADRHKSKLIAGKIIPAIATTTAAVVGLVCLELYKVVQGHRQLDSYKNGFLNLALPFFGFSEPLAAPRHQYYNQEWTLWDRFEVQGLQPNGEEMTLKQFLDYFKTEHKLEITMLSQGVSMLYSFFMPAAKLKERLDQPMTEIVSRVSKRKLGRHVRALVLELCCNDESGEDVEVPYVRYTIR
Description: Samples were then transferred to YM-30 Microcon centrifugal concentrators (Merck Millipore), diluted in buffer (40 mM Tris-HCl, pH 7.5, 8 mM MgCl2, and 10% glycerol), then serially centrifuged with additions of buffer to the remaining retentate between each spin, for final dilutions of compounds to <0.05% of original concentrations. The resulting samples were then tested in PCNA ubiquitination reactions.

HEK 293FT cells [3] = experiment: Cell survival, Alamar Blue (resazurin) assay; assay type: cell-based, human; settings: for Activity on cell viability / survival (in words) / pIC50: 24-h treatment; for pIC50: 2% DMSO, read-out: IC50 for inhibition of cell survival
Description: For cellular experiments, HEK 293FT cells (a fast-growing SV40 large T antigen-transformed strain of HEK 293 cells designed for enhanced transgene expression in transient transfections) were grown in growth medium consisting of Dulbecco’s modified Eagle’s medium (DMEM; Sigma-Aldrich), supplemented with 10% fetal bovine serum (FBS; Gibco) in a humified cell culture incubator at 37 °C with 5% CO2.
(§1) HEK 293FT cells were evaluated for survival following compound treatments by the Alamar Blue (resazurin) assay. Cells were plated onto 96-well plates at 4.8 × 10^4 cells/well in 0.5% FBS-containing DMEM at 37 °C and 5% CO2. After 24 h, compounds were added. After 24-h treatment, resazurin was added to a final concentration of 0.12 mM. Following 4-h incubation, conversion to the resorufin product was measured (with excitation at 542 nm and emission at 590 nm) on a fluorescence plate reader.

[4] = system: Uba1-overexpressing HEK 293 cells; experiment: Cell survival in Uba1-overexpressing cells vs empty vector-transfected control cells; assay type: cell-based, human; settings: 24-h treatment at IC50 of each compound (Myr 3 mM, DM 650 μM; puromycin 1 and 2 μM)
Description: as §1
(§2) HEK 293FT cells (1.5 × 10^6) were plated onto 6-cm plates in 5 ml of DMEM with 10% FBS and allowed to grow for 24 h at 37 °C and 5% CO2. For transfections, 6 μg of plasmid DNA (empty vector containing FLAG-tag sequence only, FLAG-Uba1, or FLAG-ubiquitin) and 10 μl of Lipofectamine 2000 were used for each plate. The DNA and the reagent were diluted separately in 500 μl of Opti-MEM (Gibco), and each was mixed by vortexing. After 5-min incubation, the two tubes were combined and incubated for another 20 min. Prior to adding the transfection solution to the cells, the medium was replaced with 4 ml of Opti-MEM. The transfection solution was then added dropwise. After 3-h incubation, the medium was changed to 0.5% FBS-containing DMEM, and the cells were plated for cell survival experiments, as above.

[5] = system: ubiquitin-overexpressing HEK 293 cells; experiment: Cell survival in ubiquitin-overexpressing cells vs empty vector-transfected control cells; assay type: cell-based, human; settings: 24-h treatment at IC50 of each compound (Myr 3 mM, DM 650 μM; puromycin 1 and 2 μM)
Description: as §1, §2

[6] = system: PCNA ubiquitination (RFC, Uba1, Rad6, Rad18, PCNA, ubiquitin); experiment: Reconstituted PCNA ubiquitination cascade, Western blot quantitation; assay type: biochemical, human; settings: for pIC50: 15 min preincubation, 2 h with ATP, 2% DMSO, nonlinear regression, read-out: IC50 for inhibition of PCNA ubiquitination; for Activity in the PCNA ubiquitination assay (in words): up to 500 μM
Description: The PCNA loading and ubiquitination cascade was reconstituted in 96-well white round-bottom polypropylene plates (Greiner) in a buffer consisting of 40 mM Tris-HCl, pH 7.5, 8 mM MgCl2, and 10% glycerol with 2.5 nM nicked circular pUC19, 50 nM RFC, 50 nM Uba1, 250 nM Rad6–Rad18 dimer, 50 nM FLAG-PCNA, and 250 nM biotin-ubiquitin (final concentrations). Compounds were added to the samples, with preincubation for 15 min at 25 °C before addition of ATP to a final concentration of 2 mM (to initiate the reaction cascade), followed by incubation for 2 h at 25 °C. The reactions were then terminated by addition of EDTA to 20 mM for Alpha assays or Laemmli sample buffer for Western blot analyses. For Alpha assays, reaction mixtures were diluted in buffer containing streptavidin-conjugated donor beads and anti-FLAG antibody-conjugated acceptor beads in opaque white microplates under low-light conditions, as recommended by the Alpha bead manufacturer, PerkinElmer. The plates were read on a Tecan Spark microplate reader at 23 °C. For Western blot analyses, FLAG-PCNA was detected with anti-FLAG antibody, and quantitations from the Western blot images was performed with NIH ImageJ software[74] and then analyzed with GraphPad Prism software.

Uba1 [7] = biological target: T2, Uba1; experiment: Uba1~ubiquitin thioester formation (Uba1, GST-ubiquitin, ATP; silver-stained gels); assay type: biochemical; settings: for Activity in the Uba1~ubiquitin thioester formation assay (in words): up to 500 μM

T1 sequence (P63146 whole entry): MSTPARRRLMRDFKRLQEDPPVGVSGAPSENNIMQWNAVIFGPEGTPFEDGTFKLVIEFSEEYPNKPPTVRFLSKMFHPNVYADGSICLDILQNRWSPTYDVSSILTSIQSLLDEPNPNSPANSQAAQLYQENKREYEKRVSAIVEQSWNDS

Row | Compound | Formation of the Rad6~ubiquitin thioester conjugate (Rad6) | Accumulation of ubiquitin-conjugated protein species in response to MG132 (global cellular ubiquitination) (HEK 293FT cells [1]) | Reversibility of inhibition of Uba1 and PCNA ubiquitination after washout (Uba1 [2]) | Activity on cell viability / survival (in words) (HEK 293FT cells [3]) | pIC50 (HEK 293FT cells [3]) | pIC50 (HEK 293FT cells [3]; Homo sapiens, HEK293FT, 24 h) | Effect of Uba1 overexpression on cell survival [4] | Effect of ubiquitin overexpression on cell survival [5] | pIC50 [6] | Activity in the PCNA ubiquitination assay (in words) [6] | Uba1~ubiquitin thioester formation, Uba1 alone preincubated with compound before ubiquitin and ATP (Uba1 [7]; EGCG 10 μM, Myr 50 μM) | Uba1~ubiquitin thioester formation, ubiquitin alone preincubated with compound before Uba1 and ATP (Uba1 [7]; EGCG 10 μM, Myr 50 μM) | Activity in the Uba1~ubiquitin thioester formation assay (in words) (Uba1 [7]) | Activity in the cell viability experiments at 500 μM (HEK 293FT cells [3]; 500 μM, 24 h) | pIC50 (Uba1 [7]; Fig. 6, read-out: IC50 (Uba1~Ub)) | pIC50 (Uba1 [7]; Uba1 preincubated with compound 15 min, 2 h reaction, 2% DMSO, read-out: IC50 for inhibition of Uba1~ubiquitin thioester formation)
1 | O=C(O[C@@H]1Cc2c(O)cc(O)cc2O[C@@H]1c1cc(O)c(O)c(O)c1)c1cc(O)c(O)c(O)c1 [EGCG, (–)-Epigallocatechin-3-gallate] | does not inhibit | inhibited | reversible | reduces the viability and growth; also recorded: inhibitory | 3.66 | 3.66 | reduced sensitivity; also recorded: Protects | reduced sensitivity; also recorded: Protects | 6.64 | inhibitory | complete inhibition | did not | inhibitory |  |  | 
2 | O=c1c(O)c(-c2cc(O)c(O)c(O)c2)oc2cc(O)cc(O)c12 [Myr, Myricetin] |  |  | reversible | very weak activity |  | < 3.30 | Protects | Protects | 5.92 | active |  | resulted in inhibition | active | only very weak activity | 6.14 | 6.14

From paper PMC6728334 (Scientific Reports, 2019)
